The source of these data is patent publication US20220089592A1, “IMIDAZO[1,2-A]PYRIDINYL DERIVATIVES AS IRAK4 INHIBITORS” (priority 2019, published 2022).

In assay [1] the target is T1, IRAK4 (Homo sapiens, UniProt Q9NWZ3).
T1 sequence (Q9NWZ3 1-460): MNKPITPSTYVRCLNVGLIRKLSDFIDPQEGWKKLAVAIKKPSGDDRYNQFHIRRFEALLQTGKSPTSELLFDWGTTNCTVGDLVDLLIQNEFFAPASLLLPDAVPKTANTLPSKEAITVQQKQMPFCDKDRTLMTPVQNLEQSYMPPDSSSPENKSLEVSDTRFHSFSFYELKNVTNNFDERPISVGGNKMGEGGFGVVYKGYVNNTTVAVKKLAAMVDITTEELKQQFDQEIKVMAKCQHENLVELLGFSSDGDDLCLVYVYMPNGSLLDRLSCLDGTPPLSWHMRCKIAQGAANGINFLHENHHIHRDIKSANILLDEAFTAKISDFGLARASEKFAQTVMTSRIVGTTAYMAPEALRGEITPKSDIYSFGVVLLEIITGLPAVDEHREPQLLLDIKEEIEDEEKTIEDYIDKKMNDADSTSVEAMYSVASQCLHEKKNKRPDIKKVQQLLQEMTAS
Description: 2-hour 10 μM ATP Biochemical Assay (MesoScale Detection format; IRAK4 phosphorylation of biotin labeled IRAK1 activation loop peptide). The procedure, abridged:
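Kinase reaction run 2 h at 10 μM ATP with biotinylated IRAK1 activation-loop peptide, quenched with EDTA. Phospho-peptide captured on streptavidin MSD plates and detected with anti-phosphothreonine rabbit antibody plus Sulfo-Tag anti-rabbit electrochemiluminescence.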

Assay [2] concerns the target T1, IRAK4. As to the kind of experiment: 2-hour 1 mM ATP IRAK4 Biochemical assay (as above, but with 100 pM IRAK4 and 1 mM ATP). To be noted: IRAK4 MSD BIOCHEMICAL (1 mM ATP) IC50 (μM), 100 pM IRAK4, 2 hours. Put shortly:
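Run with 100 pM IRAK4 and 1 mM ATP for 2 hours, quenched with EDTA pH 8. Phosphorylated biotinylated peptide captured on streptavidin MSD plates and detected with anti-phosphothreonine antibody plus Sulfo-Tag secondary by electrochemiluminescence.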

Setting [3] is: IRAK4 MSD BIOCHEMICAL (10 μM ATP) IC50 (μM), 1 nM IRAK4, 2 hours.

Broadly, the IC50 is the point on the concentration scale where inhibition reaches its midpoint. With `CCOc1cc2nc(C(C)C3CCOC3)cn2cc1NC(=O)c1cccc(C(F)(F)F)n1` (mixture of isomers) [Example 137, N-(7-ethoxy-2-(1-(tetrahydrofuran-3-yl)ethyl)imidazo[1,2-a]pyridin-6-yl)-6-(trifluoromethyl)picolinamide], the IC50 against IRAK4 [1] (setting [3]) and against IRAK4 [2] was 0.001 µM in each case.
As for `CCOc1cc2nc(C(F)C3CCOC3)cn2cc1NC(=O)c1cccc(C(F)(F)F)n1` (mixture of isomers) [Example 142, N-(7-ethoxy-2-(fluoro(tetrahydrofuran-3-yl)methyl)imidazo[1,2-a]pyridin-6-yl)-6-(trifluoromethyl)picolinamide], the concentration for half-maximal inhibition (IC50) at IRAK4 [1] (setting [3]) and against IRAK4 [2] was 0.001 µM each time.
Take `CCOc1cc2nc(C3CC34CCOC4)cn2cc1NC(=O)c1cccc(C(F)F)n1` (mixture of isomers) [Example 171, 6-(difluoromethyl)-N-(7-ethoxy-2-(5-oxaspiro[2.4]heptan-1-yl)imidazo[1,2-a]pyridin-6-yl)picolinamide]: the IC50 against IRAK4 [1] (setting [3]) came out at 0.002 µM; at IRAK4 [2] it was 0.004 µM.
`C[C@@H]1C[C@@H](Oc2cc3nc(C4CCOCC4)cn3cc2NC(=O)c2cccc(C(F)F)n2)CCO1` (relative stereo) [Example 186, 6-(difluoromethyl)-N-(7-(((2R*,4S*)-2-methyltetrahydro-2H-pyran-4-yl)oxy)-2-(tetrahydro-2H-pyran-4-yl)imidazo[1,2-a]pyridin-6-yl)picolinamide]: the IC50 against IRAK4 [1] (setting [3]) and on IRAK4 [2] was 0.001 µM in each case.
Take `CCOc1cc2nc([C@]34CCOC[C@H]3C4)cn2cc1NC(=O)c1cccc(C(F)F)n1` (relative stereo) [Example 249, N-(2-((1S*,6R*)-3-oxabicyclo[4.1.0]heptan-6-yl)-7-ethoxyimidazo[1,2-a]pyridin-6-yl)-6-(difluoromethyl)picolinamide]: the IC50 against IRAK4 [1] (setting [3]) and at IRAK4 [2] was 0.001 µM in each case.
For `CCOc1cc2nc(C3C[C@@H](C)O[C@@H](C)C3)cn2cc1NC(=O)c1cccc(C(F)(F)F)n1` (relative stereo) [Example 250, N-(2-((2R*,6S*)-2,6-dimethyltetrahydro-2H-pyran-4-yl)-7-ethoxyimidazo[1,2-a]pyridin-6-yl)-6-(trifluoromethyl)picolinamide], the IC50 against IRAK4 [1] (setting [3]) and against IRAK4 [2] was 0.001 µM each time.
For the molecule `CCOc1cc2nc(C[C@H]3CCOC3)cn2cc1NC(=O)c1cccc(C(F)F)n1` (single isomer, unassigned) [Example 15], the IC50 at IRAK4 [1] (setting [3]) and against IRAK4 [2] was 0.001 µM each time.
Regarding `CCOc1cc2nc(C[C@@H]3CCOC3)cn2cc1NC(=O)c1cccc(C(F)F)n1` (single isomer, unassigned) [Example 16], the IC50 at IRAK4 [1] (setting [3]) and against IRAK4 [2] was 0.001 µM each time.
As to `CCOc1nc2nc(CC3CCOC3)cn2cc1NC(=O)c1cccc(C(F)(F)F)n1` (single isomer, unassigned) [Example 94], the half-maximal inhibitory concentration (IC50) at IRAK4 [1] (read-out: IRAK4 MSD BIOCHEMICAL (10 μM ATP) IC50, 1 nM IRAK4, 2 hours) worked out at 0.001 µM; against IRAK4 [2], 0.004 µM.
With `CCOc1nc2nc(CC3CCOC3)cn2cc1NC(=O)c1cccc(C(F)(F)F)n1` (single isomer, unassigned) [Example 95], the IC50 on IRAK4 [1] (setting [3]) was 0.001 µM; at IRAK4 [2], 0.003 µM.
The corresponding values for `CCOc1cc2nc([C@H](C)[C@@H]3CCOC3)cn2cc1NC(=O)c1cccc(C(F)(F)F)n1` (single isomer, unassigned) [Example 138] are 0.001 µM and 0.001 µM.
Take `CCOc1cc2nc(C(C)C3CCOC3)cn2cc1NC(=O)c1cccc(C(F)(F)F)n1` (single isomer, unassigned) [Example 139]: the IC50 at IRAK4 [1] (setting [3]) and on IRAK4 [2] was 0.001 µM each time.
As to `CCOc1cc2nc([C@@H](C)[C@@H]3CCOC3)cn2cc1NC(=O)c1cccc(C(F)(F)F)n1` (single isomer, unassigned) [Example 140], the IC50 against IRAK4 [1] (setting [3]) and against IRAK4 [2] was 0.001 µM each time.
Consider `CCOc1cc2nc([C@H](C)[C@H]3CCOC3)cn2cc1NC(=O)c1cccc(C(F)(F)F)n1` (single isomer, unassigned) [Example 141], for which the IC50 against IRAK4 [1] (setting [3]) and against IRAK4 [2] was 0.001 µM throughout.
On to `CCOc1cc2nc([C@H](F)[C@@H]3CCOC3)cn2cc1NC(=O)c1cccc(C(F)(F)F)n1` (single isomer, unassigned) [Example 143], for which the IC50 on IRAK4 [1] (setting [3]) is 0.001 µM; against IRAK4 [2], 0.002 µM.
For `CCOc1cc2nc(C(F)C3CCOC3)cn2cc1NC(=O)c1cccc(C(F)(F)F)n1` (single isomer, unassigned) [Example 144], in that order: 0.001 µM and 0.001 µM.
For `CCOc1cc2nc([C@@H](F)[C@@H]3CCOC3)cn2cc1NC(=O)c1cccc(C(F)(F)F)n1` (single isomer, unassigned) [Example 145], in that order: 0.001 µM and 0.002 µM.
For `CCOc1cc2nc([C@H](F)[C@H]3CCOC3)cn2cc1NC(=O)c1cccc(C(F)(F)F)n1` (single isomer, unassigned) [Example 146], in that order: 0.001 µM and 0.001 µM.
For the molecule `CC1(COc2cc3nc(C[C@@H]4CCOC4)cn3cc2NC(=O)c2cccc(C(F)(F)F)n2)COC1` (single isomer, unassigned) [Example 164], the IC50 is 0.003 µM on IRAK4 [1] (setting [3]) and 0.005 µM at IRAK4 [2].
The molecule `COc1cc(NC(=O)c2cccc(C(F)F)n2)cn2cc(CC3CCOC3)nc12` (stereo not shown) [Example 411, 6-(difluoromethyl)-N-(8-methoxy-2-((tetrahydrofuran-3-yl)methyl)imidazo[1,2-a]pyridin-6-yl)picolinamide] registered an IC50 at IRAK4 [1] (setting [3]) of 0.003 µM.
Same read-out and setting: as for `COc1cc(NC(=O)c2ccn(C)n2)cn2cc(C3CCOCC3)nc12` [Example 412, N-(8-methoxy-2-(tetrahydro-2H-pyran-4-yl)imidazo[1,2-a]pyridin-6-yl)-1-methyl-1H-pyrazole-3-carboxamide 2,2,2-trifluoroacetate], the figure is 0.037 µM; as for `COc1nc(NC(=O)c2cccc(C(F)F)n2)cn2cc(C3CCOCC3)nc12` [Example 450, 6-(difluoromethyl)-N-(8-methoxy-2-(tetrahydro-2H-pyran-4-yl)imidazo[1,2-a]pyrazin-6-yl)picolinamide], 0.003 µM.
On the same count and under the same terms, as for `COc1nc(NC(=O)c2ccn(CC(F)F)n2)cn2cc(C3CCOCC3)nc12` [Example 452, 1-(2,2-difluoroethyl)-N-(8-methoxy-2-(tetrahydro-2H-pyran-4-yl)imidazo[1,2-a]pyrazin-6-yl)-1H-pyrazole-3-carboxamide], the figure is 0.031 µM; as for `COc1nc(NC(=O)c2cccc3c2OCC3)cn2cc(C3CCOCC3)nc12` [Example 453, N-(8-methoxy-2-(tetrahydro-2H-pyran-4-yl)imidazo[1,2-a]pyrazin-6-yl)-2,3-dihydrobenzofuran-7-carboxamide], 0.005 µM; as for `COc1cc(NC(=O)c2cccc(C(F)F)n2)cn2cc(CC3CCOCC3)nc12` [Example 506, 6-(difluoromethyl)-N-(8-methoxy-2-((tetrahydro-2H-pyran-4-yl)methyl)imidazo[1,2-a]pyridin-6-yl)picolinamide], 0.004 µM.
At IRAK4 [1] (setting [3]), `COc1cc(NC(=O)c2cccc(C(F)F)n2)cn2cc(C34COC(C)(C3)C4)nc12` [Example 508, 6-(difluoromethyl)-N-(8-methoxy-2-(1-methyl-2-oxabicyclo[2.1.1]hexan-4-yl)imidazo[1,2-a]pyridin-6-yl)picolinamide 2,2,2-trifluoroacetate] had an IC50 of 0.002 µM.
`COc1cc(NC(=O)c2cccc(C(F)F)n2)cn2cc(C3CC4CCC(C3)O4)nc12` (stereo not shown) [Example 509, N-(2-(8-oxabicyclo[3.2.1]octan-3-yl)-8-methoxyimidazo[1,2-a]pyridin-6-yl)-6-(difluoromethyl)picolinamide 2,2,2-trifluoroacetate] registered an IC50 at IRAK4 [1] (setting [3]) of 0.002 µM.
Still for that read-out and setting: the value for `COc1cc(NC(=O)c2cccc(C(F)F)n2)cn2cc(C34CC(C#N)(C3)C4)nc12` [Example 511, N-(2-(3-cyanobicyclo[1.1.1]pentan-1-yl)-8-methoxyimidazo[1,2-a]pyridin-6-yl)-6-(difluoromethyl)picolinamide 2,2,2-trifluoroacetate] was 0.004 µM; that for `COc1cc(NC(=O)c2cccc(C(F)F)n2)cn2cc(C34CC(C(F)F)(C3)C4)nc12` [Example 512, 6-(difluoromethyl)-N-(2-(3-(difluoromethyl)bicyclo[1.1.1]pentan-1-yl)-8-methoxyimidazo[1,2-a]pyridin-6-yl)picolinamide 2,2,2-trifluoroacetate] was 0.004 µM; that for `COc1cc(NC(=O)c2cccc(C(F)F)n2)cn2cc(C34COC(C3)C4)nc12` [Example 544, N-(2-(2-oxabicyclo[2.1.1]hexan-4-yl)-8-methoxyimidazo[1,2-a]pyridin-6-yl)-6-(difluoromethyl)picolinamide 2,2,2-trifluoroacetate] was 0.011 µM.
